In patent publication US20240400555A1 (Initial Therapeutics, Inc., priority 2023, published 2024) one finds IC50 data, which are given here for 29 molecules.

SMILES strings stand for the structures. pIC50: −log10 of the molar value.

The test system of the assay is MV-4-11 cells. In words: Cell Viability Assay in MV-4-11 Cells. Type of assay: cell-based. The note with it: Homo sapiens, MV4-11, 72 h, MV-4-11 cells, 72 h, Cell-Titer Glo; read-out: IC50. The procedure, abridged:
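Luminescent ATP read-out (CellTiter-Glo) after 72 h compound treatment of MV-4-11 leukaemia cells (7,000 per well, IMDM plus 10% FBS). Values expressed relative to DMSO control and derived by four-parameter non-linear regression.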
In the case of `Cn1cc(-c2ccc3c(N(C(=O)c4ccc(-c5cn(C)nn5)cc4F)[C@@H]4CCCNC4)nccc3c2)cn1` [Example 445, (R)-2-fluoro-4-(1-methyl-1H-1,2,3-triazol-4-yl)-N-(6-(1-methyl-1H-pyrazol-4-yl)isoquinolin-1-yl)-N-(piperidin-3-yl)benzamide], the negative logarithm of the IC50 (pIC50) – broadly, the negative decadic logarithm of the IC50, by convention in mol/L – was 6.54.

Take `NS(=O)(=O)c1cccc(-c2cc3c(N(C(=O)c4ccc(-n5nnc6cccnc65)cc4F)[C@@H]4CCCNC4)nccc3s2)c1` [Example 446, 2-fluoro-N-[(3R)-3-piperidyl]-N-[2-(3-sulfamoylphenyl)thieno[3,2-c]pyridin-4-yl]-4-(triazolo[4,5-b]pyridin-3-yl)benzamide]: the pIC50 was 5.72.

As to `NC(=O)Cc1cccc(-c2cc3c(N(C(=O)c4ccc(-n5nnc6cccnc65)cc4F)[C@@H]4CCCNC4)nccc3s2)c1` [Example 447, N-[2-[3-(2-amino-2-oxo-ethyl)phenyl]thieno[3,2-c]pyridin-4-yl]-2-fluoro-N-[(3R)-3-piperidyl]-4-(triazolo[4,5-b]pyridin-3-yl)benzamide], the pIC50 is 6.96.

On to `NC(=O)c1ccc(-c2cc3c(N(C(=O)c4ccc(-n5nnc6cccnc65)cc4F)[C@@H]4CCCNC4)nccc3s2)cc1` [Example 448, N-[2-(4-carbamoylphenyl)thieno[3,2-c]pyridin-4-yl]-2-fluoro-N-[(3R)-3-piperidyl]-4-(triazolo[4,5-b]pyridin-3-yl)benzamide], for which the pIC50 is 7.28.

With `O=C(c1ccc(-n2nnc3cccnc32)cc1F)N(c1nccc2sc(-c3cccc(-c4ncco4)c3)cc12)[C@@H]1CCCNC1` [Example 449, 2-fluoro-N-[2-(3-oxazol-2-ylphenyl)thieno [3,2-c]pyridin-4-yl]-N-[(3R)-3-piperidyl]-4-(triazolo [4,5-b]pyridin-3-yl) benzamide], the pIC50 was 6.03.

`O=C(c1ccc(-n2nnc3cccnc32)cc1F)N(c1nccc2sc(-c3nc4ccccn4n3)cc12)[C@@H]1CCCNC1` [Example 450, 2-fluoro-N-[(3R)-3-piperidyl]-N-[2-([1,2,4]triazolo[1,5-a]pyridin-2-yl)thieno[3,2-c]pyridin-4-yl]-4-(triazolo[4,5-b]pyridin-3-yl)benzamide]: the pIC50 was 6.52.

For the molecule `O=C(c1ccc(-n2nnc3cccnc32)cc1F)N(c1nccc2sc(-c3cnccn3)cc12)[C@@H]1CCCNC1` [Example 451, 2-fluoro-N-[(3R)-3-piperidyl]-N-(2-pyrazin-2-ylthieno[3,2-c]pyridin-4-yl)-4-(triazolo[4,5-b]pyridin-3-yl)benzamide], the pIC50 was 6.60.

On to `NC(=O)c1cccc(-c2cc3c(N(C(=O)c4ccc(-n5nnc6cccnc65)cc4F)[C@@H]4CCCNC4)nccc3s2)c1` [Example 452, N-[2-(3-carbamoylphenyl)thieno[3,2-c]pyridin-4-yl]-2-fluoro-N-[(3R)-3-piperidyl]-4-(triazolo[4,5-b]pyridin-3-yl)benzamide], for which the negative-log IC50 (pIC50) was 6.74.

On to `NC(=O)c1ccc2c(N(C(=O)c3ccc(-n4nnc5cccnc54)cc3F)[C@@H]3CCCNC3)nccc2c1` [Example 453, (R)-1-(4-(3H-[1,2,3]triazolo[4,5-b]pyridin-3-yl)-2-fluoro-N-(piperidin-3-yl)benzamido)isoquinoline-6-carboxamide], for which the pIC50 was 6.70.

For `O=C(c1ccc(-n2nnc3cccnc32)cc1F)N(c1nccc2sc(-c3ccc(C(F)(F)F)nc3)cc12)[C@@H]1CCCNC1` [Example 454, 2-fluoro-N-[(3R)-3-piperidyl]-4-(triazolo[4,5-b]pyridin-3-yl)-N-[2-[6-(trifluoromethyl)-3-pyridyl]thieno[3,2-c]pyridin-4-yl]benzamide], the pIC50 is 6.00.

On to `O=C(c1ccc(-n2nnc3cccnc32)cc1F)N(c1nccc2sc(-c3ccnnc3)cc12)[C@@H]1CCCNC1` [Example 455, 2-fluoro-N-[(3R)-3-piperidyl]-N-(2-pyridazin-4-ylthieno[3,2-c]pyridin-4-yl)-4-(triazolo[4,5-b]pyridin-3-yl)benzamide], for which the pIC50 is 6.19.

For `O=C(c1ccc(-n2nnc3cccnc32)cc1F)N(c1nccc2sc(-c3ccncn3)cc12)[C@@H]1CCCNC1` [Example 456, 2-fluoro-N-[(3R)-3-piperidyl]-N-(2-pyrimidin-4-ylthieno[3,2-c]pyridin-4-yl)-4-(triazolo[4,5-b]pyridin-3-yl)benzamide], the pIC50 is 6.42.

With `Nc1nccc(-c2cc3c(N(C(=O)c4ccc(-n5nnc6cccnc65)cc4F)[C@@H]4CCCNC4)nccc3s2)n1` [Example 457, N-[2-(2-aminopyrimidin-4-yl)thieno[3,2-c]pyridin-4-yl]-2-fluoro-N-[(3R)-3-piperidyl]-4-(triazolo[4,5-b]pyridin-3-yl)benzamide], the pIC50 is 6.54.

Turning to `CN(C)c1nccc(-c2cc3c(N(C(=O)c4ccc(-n5nnc6cccnc65)cc4F)[C@@H]4CCCNC4)nccc3s2)n1` [Example 458, N-[2-[2-(dimethylamino)pyrimidin-4-yl]thieno[3,2-c]pyridin-4-yl]-2-fluoro-N-[(3R)-3-piperidyl]-4-(triazolo[4,5-b]pyridin-3-yl)benzamide], the pIC50 was 6.41.

In the case of `O=C(c1ccc(-n2nnc3cccnc32)cc1F)N(c1nccc2sc(-c3cc[nH]c(=O)c3)cc12)[C@@H]1CCCNC1` [Example 459, 2-fluoro-N-[2-(2-oxo-1H-pyridin-4-yl)thieno[3,2-c]pyridin-4-yl]-N-[(3R)-3-piperidyl]-4-(triazolo[4,5-b]pyridin-3-yl)benzamide], the negative logarithm of the IC50 (pIC50) was 6.37.

On to `COc1cc(-c2cc3c(N(C(=O)c4ccc(-n5nnc6cccnc65)cc4F)[C@@H]4CCCNC4)nccc3s2)ccn1` [Example 460, 2-fluoro-N-[2-(2-methoxy-4-pyridyl)thieno[3,2-c]pyridin-4-yl]-N-[(3R)-3-piperidyl]-4-(triazolo[4,5-b]pyridin-3-yl)benzamide], for which the pIC50 is 6.66.

On to `CCc1cc(-c2cc3c(N(C(=O)c4ccc(-n5nnc6cccnc65)cc4F)[C@@H]4CCCNC4)nccc3s2)ccn1` [Example 461, N-[2-(2-ethyl-4-pyridyl)thieno[3,2-c]pyridin-4-yl]-2-fluoro-N-[(3R)-3-piperidyl]-4-(triazolo[4,5-b]pyridin-3-yl)benzamide], for which the pIC50 is 6.14.

For `O=C(c1ccc(-n2nnc3cccnc32)cc1F)N(c1nccc2sc(-c3ccnc(C(F)(F)F)c3)cc12)[C@@H]1CCCNC1` [Example 462, 2-fluoro-N-[(3R)-3-piperidyl]-4-(triazolo[4,5-b]pyridin-3-yl)-N-[2-[2-(trifluoromethyl)-4-pyridyl]thieno[3,2-c]pyridin-4-yl]benzamide], the pIC50 is 6.00.

For `CC(C)(C#N)c1cc(-c2cc3c(N(C(=O)c4ccc(-n5nnc6cccnc65)cc4F)[C@@H]4CCCNC4)nccc3s2)ccn1` [Example 463], the negative-log IC50 (pIC50) is 6.49.

As to `O=C(c1ccc(-n2nnc3cccnc32)cc1F)N(c1nccc2sc(-c3ccccc3)cc12)[C@@H]1CCCNC1` [Example 464, 2-fluoro-N-(2-phenylthieno[3,2-c]pyridin-4-yl)-N-[(3R)-3-piperidyl]-4-(triazolo[4,5-b]pyridin-3-yl)benzamide], the pIC50 was 6.19.

In the case of `O=C(c1ccc(-n2nnc3cccnc32)cc1F)N(c1nccc2sc(Cc3cccnc3)cc12)[C@@H]1CCCNC1` [Example 465, 2-fluoro-N-[(3R)-3-piperidyl]-N-[2-(3-pyridylmethyl)thieno[3,2-c]pyridin-4-yl]-4-(triazolo[4,5-b]pyridin-3-yl)benzamide], the pIC50 is 6.62.

As for `O=C(c1ccc(-n2nnc3cccnc32)cc1F)N(c1nccc2sc(Cc3ccccc3)cc12)[C@@H]1CCCNC1` [Example 466, N-(2-benzylthieno[3,2-c]pyridin-4-yl)-2-fluoro-N-[(3R)-3-piperidyl]-4-(triazolo[4,5-b]pyridin-3-yl)benzamide], the pIC50 is 6.36.

For `O=Cc1cccc(-c2cc3c(N(C(=O)c4ccc(-n5nnc6cccnc65)cc4F)[C@@H]4CCCNC4)nccc3s2)c1` [Example 467, 2-fluoro-N-[2-(3-formylphenyl)thieno[3,2-c]pyridin-4-yl]-N-[(3R)-3-piperidyl]-4-(triazolo[4,5-b]pyridin-3-yl)benzamide], the pIC50 is 6.66.

For the molecule `Cc1csc2ccnc(N(C(=O)c3ccc(Nc4ncccn4)cc3F)[C@@H]3CCCNC3)c12` [Example 468, (R)-2-fluoro-N-(3-methylthieno[3,2-c]pyridin-4-yl)-N-(piperidin-3-yl)-4-(pyrimidin-2-ylamino)benzamide], the pIC50 is 6.92.

`Cn1cc(-c2ccc(C(=O)N(c3nccc4cc(F)ccc34)[C@@H]3CCCNC3)c(F)c2)nn1` [Example 469, (R)-2-fluoro-N-(6-fluoroisoquinolin-1-yl)-4-(1-methyl-1H-1,2,3-triazol-4-yl)-N-(piperidin-3-yl)benzamide]: the pIC50 is 6.74.

With `Cn1cc(-c2ccc(C(=O)N(c3nccc4cc(Cl)ccc34)[C@@H]3CCCNC3)c(F)c2)nn1` [Example 470, N-(6-chloro-1-isoquinolyl)-2-fluoro-4-(1-methyltriazol-4-yl)-N-[(3R)-3-piperidyl]benzamide], the negative-log IC50 (pIC50) is 7.04.

Regarding `COc1ccc2c(N(C(=O)c3ccc(-c4cn(C)nn4)cc3F)[C@@H]3CCCNC3)nccc2c1` [Example 471, (R)-2-fluoro-N-(6-methoxyisoquinolin-1-yl)-4-(1-methyl-1H-1,2,3-triazol-4-yl)-N-(piperidin-3-yl)benzamide], the negative logarithm of the IC50 (pIC50) is 6.62.

Regarding `Cn1cc(-c2ccc(C(=O)N(c3nccc4cc(C#N)ccc34)[C@@H]3CCCNC3)c(F)c2)nn1` [Example 472, (R)—N-(6-cyanoisoquinolin-1-yl)-2-fluoro-4-(1-methyl-1H-1,2,3-triazol-4-yl)-N-(piperidin-3-yl)benzamide], the pIC50 was 6.24.

On to `Cc1cccc2ccnc(N(C(=O)c3ccc(Nc4ncncn4)cc3F)[C@@H]3CCCNC3)c12` [Example 473, (R)-4-((1,3,5-triazin-2-yl)amino)-2-fluoro-N-(8-methylisoquinolin-1-yl)-N-(piperidin-3-yl)benzamide], for which the pIC50 is 6.52.
